Like-named read-outs stand apart in the source and are kept apart here. Where a SMILES comes first, the peptide text is derived from it. [ ]: non-standard residue; d: D form. The star is where a group is joined. ξ: configuration not given here. Dolaproine = CO[C@@H]([C@@H]1CCCN1)[C@@H](C)C(=O)O; X1 = C=CCOC(=O)Nc1ccc(C(OC(=O)*)C(=O)NCC)cc1; Dil = CC[C@H](C)[C@H](NC)[C@@H](CC(=O)O)OC; X2 = C[C@@H](N*)[C@@H](O)c1ccccc1; NMeV = CN[C@H](C(=O)O)C(C)C; ξV = CC(C)C(N)C(=O)O
Experiments:
[1] = cited from earlier work
[2] = tested on: HT1080 fibrosarcoma cancer cells; test: Resazurin-based cytotoxicity assay, 72 h; settings: for turn-on capacity in cytotoxicity: with vs without Pd-NP
Protocol: (§2) In vitro NP characterization: 5,000 cells per well were added to 96-well plates for cytotoxicity assessment; cells were treated after overnight seeding with compound or the appropriate buffer control (drug-free PLGA-PEG NP), and assessed for viability 72 h later using PrestoBlue (Life Technologies) following the manufacturer's protocol.

[3] = Pd-mediated uncaging of fluorogenic coumarin substrate (reaction kinetics and catalyst performance); settings: PdCl2(TFP)2, HBSS
Protocol: Reaction kinetics and catalyst performance. Alloc-SIL-dPEG4-AMC (8) was reacted at a concentration of 5 μM with palladium catalyst (Pd-1, Pd-2, Pd-3, Pd-4) at a concentration of 10 μM in HBSS and MEM (see FIG. 8). Alloc2R110 was reacted at a concentration of 5 μM with Pd-1 at a concentration of 10 μM in HBSS as described previously.2 Fluorescence was monitored for 10 h at room temperature using 96 well plates and a Tecan Safire 2 fluorescence plate reader.

[4] = tested on: HT1080 cancer cells; test: Subcellular drug accumulation by intrinsic anthracycline fluorescence microscopy; format: cell-based, human; settings: HT1080, 24 h
Protocol: FIGS. 3A-3D. […] Co-localization was determined by tabulating the fraction of NP-positive puncta (vesicles) in cells that contained high RFP expression or not (labeled red and gray, respectively; n>10 cells, bars are mean±std. dev.). b) Following 30 min pre-treatment with the indicated compounds, HT1080 cells were treated with the same NP as in a, and imaged 3 h later (n>6 biological replicates; mean±s.e.m.). c-d) HT1080 tumor cells were treated with C16proDOX, DOX, or Pd-NP with C16proDOX for 24 h, and then imaged by fluorescence microscopy (representative images shown in c) to evaluate subcellular drug accumulation based on endogenous anthracycline fluorescence (scale bar, 20 μm). Yellow lines (c) denote representative examples of how fluorescence intensity profiles were quantified from line-scans through cells (d), shown as means (thick line)±s.e.m. (shading; n>10), for hoechstand anthracycline fluorescence.

[5] = In vitro NP prodrug release in PBS; format: physicochemical; settings: over 72 h at 37° C. in PBS
Protocol: Transmission electron microscopy (TEM) was performed in the Microscopy Core of the Center for Systems Biology/Program in Membrane Biology (MGH). […] Excess solution was blotted, grids were stained with phosphotungstic acid, and then blotted, dried and imaged. In vitro NP prodrug release was performed by incubating in PBS at 37° C., separating NPs using a 30 kDa molecular weight cutoff filter (Millipore Amicon) after 72 h, and measuring flow-through for drug content by absorbance (Nanodrop). NP was dissolved in DMF and also measured for drug content by absorbance. Pd-NP, Alloc2R110 and its nanoformulation, and all Pd compounds were synthesized and characterized as previously described.^5

[6] = tested on: HT1080-EB3-mApple cells; test: EB3 microtubule comet imaging in live cells; format: cell-based, human; settings: 24 h
Protocol: Microtubule imaging. EB3 tracking was performed using an FV1000 confocal laser scanning microscope on a 37° C. heated stage, with XLUMPLFLN 20× (NA 1.0) or LUMFLN 60× (NA 1.1) water-immersion objectives, 1-10× digital zoom, 559-nm diode laser, and BA575-620 emission filter (all Olympus America). […] EB3 tracks were automatically identified and analyzed from time-lapse datasets using u-track software,^35 with tuning of maximum gap number and minimum frame number across datasets to account for differences in image quality; ambiguous and spurious tracks and artifacts were excluded according to requirements for directional continuity (directional persistence as net displacement/path length>0.8) and movement (value>3 pixels). Speed was determined between frames in each track and averaged for each track by computing the mean of the middle 80% of between-frame values. Track overlay figures were produced using a custom python script. Averaged track speeds excluded outliers falling more than 1.5× the interquartile range for each biological replicate.

[7] = tested on: panel of 4 cancer cell lines; test: Cytotoxicity across a panel of cancer cell lines, 72 h; format: cell-based; settings: prodrug alone, concentrations ≤10 μM
[8] = tested on: MC38 murine colon adenocarcinoma tumors; test: MC38 syngeneic tumor growth; format: in vivo, C57BL/6 mice; settings: combined with Pd-NP
Protocol: (§1) Cell lines and animal models: All animal research was performed in accordance with guidelines from the Institutional Subcommittee on Research Animal Care. HT1080 xenografts were generated by 2 million cells implanted subcutaneously in flanks of 6-8 week old female nu/nu mice (Cox7/MGH) in 50 μl PBS. MC38 syngeneic tumors were formed by intradermal implantation of 2 million cells in 50 μl PBS, in the flanks of 7-12 week old female C57BL/6 mice (JAX), following previously described inoculation protocols.^33 Four blinded caliper measurements per tumor were used to measure tumor size according to the formula V=(width)^2(length)/2; animals were randomly assigned to treatment groups. Experiments build on prior imaging, biodistribution, and longitudinal tumor growth data that likewise guided determination of experimental sample sizes.^5, 30 Treatment began approximately 3 weeks post-implantation once tumors reached an average diameter of 5.5±1.8 mm in the HT1080 model (mean±std. dev.; n=72), and roughly 2 weeks post-implantation in the MC38 model once tumors reached an average diameter of 5.45±1.2 mm (mean±std. dev.; n=14). […] Blood chemistry readouts were measured from plasma collected in heparinized tubes by terminal cardiac puncture under vaporized isoflurane anesthesia, using the MGH Veterinary Clinical Pathology lab and the automated DriChem blood chemistry analyzer (Heska). […]

[9] = Body weight and blood chemistry of treated tumor-bearing animals; format: in vivo, mice; settings: dual Pd-NP and C16proMMAE
Protocol: as §1

[10] = tested on: subcutaneous HT1080 xenograft tumors; test: HT1080 xenograft tumor growth; format: in vivo, nu/nu mice
Protocol: as §1

[11] = tested on: HT1080 cells; format: cell-based, human; settings: for uptake of fluorescent PLGA-PEG NPs: 30 min pre-treatment, imaged 3 h later
Protocol: In vitro NP uptake imaging. To quantify subcellular localization of NPs in HT1080 cells, Rab7a-RFP and Lamp1-RFP fusion constructs were expressed using a commercial baculovirus platform (CellLight BacMam 2.0, Invitrogen), following manufacturing guidelines. Pharmacological modulation of NP uptake was performed using the following: staurosporine (1 μM; LC labs), latrunculin B (1 μM; Tocris), cytochalasin D (1 μM; Sigma), chloroquine (50 μM; Sigma), and ethylisopropyl amiloride EIPA (100 μM; Tocris). Cells were rinsed in fresh media immediately prior to imaging; only adherent cells were quantified. Chloroquine dose-response measurements were normalized to the C16proDOX control (rather than the chloroquine-free control), in order to compare relative effects on the potency of Pd-mediated C16proDOX activation itself 50 μM chloroquine alone caused a 15-30% decrease in cell viability.

[12] = Resazurin-based cytotoxicity assay, 72 h; settings: human, HT1080 fibrosarcoma cancer cells
Protocol: as §2

[13] = without the C16 anchor; cited from earlier work
[14] = Homo sapiens, HT-1080, 72 h, read-out: IC50 (concentration at which 50% of cells died)

C=CCOC(=O)N[C@H]1C[C@H](O[C@H]2C[C@](O)(C(=O)CO)Cc3c(O)c4c(c(O)c32)C(=O)c2c(OC)cccc2C4=O)O[C@@H](C)[C@H]1O [Alloc-DOX, reference compound]
myelotoxicity ([1]; dual Pd-NP and Alloc-DOX strategy): did not
IC50 ([2]; read-out: IC50 (concentration at which 50% of cells died), HT1080, 72 h, without Pd-NP): 18000 nM
turn-on capacity in cytotoxicity [2]: ~700 ×

C=CCOC(=O)Nc1ccc(C(OC(=O)Nc2ccc3c(C)cc(=O)oc3c2)C(=O)NCCOCCOCCOCCO)cc1 (stereo not drawn) [Alloc-SIL-PEG4-AMC, Alloc-SIL-AMC-dPEG4]
uncaging rate relative to Alloc2R110 (calculated second order rate constants) [3]: approximately 1.5 fold

C=CCOC(=O)Nc1ccc(C(OC(=O)N[C@H]2C[C@H](O[C@H]3C[C@](O)(C(=O)CO)Cc4c(O)c5c(c(O)c43)C(=O)c3c(OC)cccc3C5=O)O[C@@H](C)[C@H]2O)C(=O)NCCCCCCCCCCCCCCCC)cc1 (stereo partly drawn) [C16proDOX, Alloc-SIL-C16-Dox]
subcellular accumulation ([4]; co-incubation with Pd-NP): detectable increase of drug in the nucleus compared to the cytoplasm
subcellular accumulation ([4]; without Pd-NP): accumulated primarily in cytoplasmic/perinuclear cellular compartments
IC20, fold higher than Alloc-DOX ([2]; HT1080, without Pd-NP): roughly 15 fold
IC20, fold higher than uncaged DOX ([2]; HT1080, without Pd-NP): ~1900 fold
IC50 [2, 14]: > 50000 nM
release of the prodrug payload from the nanoformulation [5]: 20%±6%

C=CCOC(=O)Nc1ccc(C(OC(=O)N(C)[C@H](C(=O)NC(C(=O)N(C)[C@@H]([C@@H](C)CC)[C@@H](CC(=O)N2CCC[C@H]2[C@H](OC)[C@@H](C)C(=O)N[C@H](C)[C@@H](O)c2ccccc2)OC)C(C)C)C(C)C)C(=O)NCC)cc1 (stereo partly drawn) [C16proMMAE, Alloc-SIL-C16-MMAE] (X1-[NMeV][ξV][Dil][Dolaproine]-X2)
microtubule comets ([6]; 1 μM C16proMMAE combined with 35 μM Pd-NP): complete elimination of visible comets
microtubule comets (prevalence and growth speed) ([6]; individual treatment, 1 μM MMAE or C16proMMAE, 35 μM Pd-NP): not substantially perturbed
impact on cell growth [7]: no detectable impact on cell growth
tumor growth [8]: effective at slowing tumor growth
tumor growth at 2 days following the 2nd round of treatment [8]: completely blocked
enhanced cytotoxicity with sub-micromolar Pd-NP ([2]; HT1080, sub-micromolar Pd-NP): > 10 fold
IC50 ([2]; Homo sapiens, HT-1080, 72 h, read-out: IC50 upon Pd-NP activation): 0.015 nM
level of prodrug activation based on cytotoxicity ([2]; Pd-NP concentration 50 μM): > 90%
concentration at which cytotoxic upon activation by Pd-NP ([2]; with Pd-NP): < 0.1 nM
turn-on capacity in cytotoxicity [2]: > 70,000 ×
release of the prodrug payload from the nanoformulation [5]: < 10%
drug-induced weight loss ([9]; HT1080 or MC38 tumor-bearing animals): did not show drug-induced weight loss
blood chemistry analysis ([9]; MC38 tumor-bearing mice): no signs of drug-induced liver or kidney toxicity
tumor growth at 2 days following the 2nd round of treatment ([10]; combined with Pd-NP): completely blocked
reduction in prodrug dose required for controlling tumor growth in vivo ([10]; compared to Alloc-DOX): 50 fold

CCN(c1nc(N)c(C(=O)N=C(N)N)nc1Cl)C(C)C [EIPA, 5-(N-Ethyl-N-isopropyl)amiloride]
uptake of fluorescent PLGA-PEG NPs [11]: acutely reduced the uptake of NPs

CCN(CC)CCCC(C)Nc1ccnc2cc(Cl)ccc12 (stereo not drawn) [chloroquine, reference compound]
NP accumulation in vesicles ([11]; HT1080, 50 μM chloroquine co-treatment, 24 h): enhanced accumulation of NPs in distinctly large vesicles
impact on cytotoxicity of combined Pd-NP and C16proDOX treatment ([2]; HT1080, 50 μM chloroquine, 50 μM Pd-NP, 72 h): only modest impact
cytotoxicity at 72 h, 50 μM [12]: 15 to 30%

C=C1[C@@H](C)[C@H]2[C@H](Cc3ccccc3)NC(=O)[C@]23[C@H](OC(C)=O)/C=C/[C@@](C)(O)C(=O)[C@@H](C)C/C=C/[C@H]3[C@@H]1O [cytochalasin D]
uptake of fluorescent PLGA-PEG NPs [11]: acutely reduced the uptake of NPs

COc1cccc2c1C(=O)c1c(O)c3c(c(O)c1C2=O)C[C@@](O)(C(=O)CO)C[C@@H]3O[C@H]1C[C@H](N)[C@H](O)[C@H](C)O1 [doxorubicin, reference compound]
subcellular accumulation ([4]; without Pd-NP): primarily accumulates in the nuclei of cancer cells
myelotoxicity ([1]; solvent- and nano-formulations, equimolar doses): exhibited myelotoxicity
IC50 [2, 14]: 100 nM
nano-encapsulation efficiency (earlier report) [13]: 22%

C/C1=C/C(=O)O[C@@H]2C[C@@H](CC[C@H](C)/C=C\C=C\CC1)O[C@@](O)([C@@H]1CSC(=O)N1)C2 [latrunculin A]
uptake of fluorescent PLGA-PEG NPs [11]: acutely reduced the uptake of NPs

CN[C@@H]1C[C@H]2O[C@@](C)([C@@H]1OC)n1c3ccccc3c3c4c(c5c6ccccc6n2c5c31)C(=O)NC4 [staurosporine]
uptake of fluorescent PLGA-PEG NPs [11]: decreased NP accumulation

— patent US12636373B2, “Prodrugs with a tridentate self-immolative linker” (The General Hospital Corporation, priority 2018, dated 2026)
